Data reported in patent US20080221074A1, “Drug Screen and Treatment Method” (priority 2006, published 2008).

Experiments:
NF-κB = test: kinetic analysis of NF-kB inhibition in vivo after LPS; parameters: species or system mice
Experimental: Kinetic analysis of NF-kB inhibition in vivo. […] The drug was injected 24 hours before intraperitoneal injection of bacterial LPS (about an LD50/24). The study used two groups of 12 animals, vehicle control or drug administered 24 hours before LPS challenge. Spleens were harvested from 3 animals from both groups just before LPS challenge and at 1.5, 2.0 and 2.5 hours after administration of LPS.
Maximum NF-κB activation after LPS administration occurred at 1.5 hours in the vehicle controls, which was 4-fold increased over the pre-LPS level of activated NF-κB. The values for the vehicle control and drug treated animals are relative optical density units from ELISA measurement of NF-κB in nuclei from spleen cells.

[1] = test system: passive collagen-induced arthritis; test: passive collagen induced arthritis (anti-type II collagen antibodies); format: in vivo, DBA/1 mice; conditions: 40 mg/kg/day oral gavage
Excerpt: The capacity of formula 1 compounds to affect the course of arthritis in a passive collagen induced arthritis model of arthritis was examined essentially as previously described (E. Simelyte et al., Arthritis & Rheumatism, 52(6):1876-1884, 2005; Z. Han et al. Arthritis & Rheumatism 46(3):818-823, 2002; H. Miyahara et al., Clin. Immunol. Immunopathol., 69(1):69-76 1993). In this protocol, passive collagen-induced arthritis was induced in DBA/1 mice by administering anti-type II collagen antibodies, which induced an immune response against joint tissue in the animals. […] The severity of arthritis was assessed using a semiquantitative clinical scoring system. Groups of 8 animals per group were treated with 17α-ethynylandrost-5-ene-3β,7β,17β-triol at 40 mg/kg/day for 14 days or vehicle for 14 days by oral gavage. The vehicle was 30% cyclodextrin-sulfobutylether in water and the drug solution was vehicle with drug at 20 mg/mL.
The animals were examined by measuring ankle thickness and arthritis score (4-point/paw) with a higher score indicating a more severe arthritis. The experiment was terminated after about 14 days, and histology and gene expression measurements were performed. […] A semi-quantitative scoring system was used to access synovial inflammation, extraarticular inflammation, erosion and proteogylcan loss. […]

[2] = test system: popliteal lymph node cells; test: reporter antigen popliteal lymph node (PLN) assay; format: in vivo, BALB/C mice
Excerpt: Analysis of immune suppression. Glucocorticoid steroids such as dexamethasone or hydrocortisone are typically immune suppressive and have significant toxicities associated with their use. Immune suppression was examined in a reporter antigen popliteal lymph node assay in mice essentially as previously described (C. Goebel et al., Inflamm. Res., 45(Suppl. 2):S85-S90, 1996; R. Pieters et al., Environmental Health Perspectives 107(Suppl. 5):673-677, 1999). […] In this protocol, the vehicle was 0.1% carboxymethylcellulose, 0.9% saline, 2% tween 80 and 0.05% phenol, which contained 17α-ethynylandrost-5-ene-3β,7β,17β-triol in suspension in drug treated animals. Assessment of activity included (1) measuring suppression of numbers of total lymphocytes, antigen specific IgM, IgG1 and IgG2a antibody secreting cells (ASC) (ELISPOT assay) in popliteal lymph node cells; (2) analysis of cell surface marker (CD4, CD8, CD19, F480, CD80, CD86) expression by flow cytometry of living cells in suspension; and (3) IL-4, TNFα and IFNγ production by lymphocytes in vitro (ELISA).
Groups (n=5 per group) of specific pathogen free BALB/C mice were used. The Positive control group was treated with vehicle (oral gavage) and 5 μg/day dexamethasone by subcutaneous injection to induce immune suppression. Vehicle control animals (negative control) were treated with vehicle alone (oral gavage). One group of animals was treated with 17α-ethynylandrost-5-ene-3β,7β,17β-triol at 0.1 mg/day by oral gavage. Another group was treated with 1 mg/day of 17α-ethynylandrost-5-ene-3β,7β,17β-triol was administered to the animals oral gavage. The results were analyzed by two-tailed Student's t-test with equal variance. The animals were injected in the right hind footpad with 50 μL of freshly prepared sensitizing dose of TNP-OVA. […] Single cell suspensions were prepared, resuspended in 1 mL PBS-BSA (1%) and counted. Cell numbers, IL-4, IL-5 and IFNγ were measured.

11β-HSD1 = test: expression of 11β-HSD1 in osteoblasts of treated mice; conditions: mouse, in vivo
[3] = test system: monocyte chemoattractant protein-1 (MCP-1); test: MCP-1 RNA in perigonadal fat tissue by quantitative RT/PCR; format: in vivo, db/db mice; conditions: 20 mg/kg; normalized to vehicle control
Experimental: In another study, total RNA from perigonadal fat tissue from lean db/+ or diabetic db/db mice treated with 20 mg/kg of 17α-ethynylandrost-5-ene-3β,7β,17β-triol was isolated and processed for quantitative RT/PCR using primers specific for monocyte chemoattractant protein-1 (MCP-1) using an icycler iQ multicolor real time-detection system (Bio-Rad). RNA expression levels were normalized with respect to the vehicle control. […] For this study, vehicle was also administered to a control group of age matched lean heterozygous db/+ mice (n=7).

[4] = test system: human MG-63 osteosarcoma cell line; test: reversal of dexamethasone effects in MG-63 osteoblasts; format: cell-based; conditions: 30 nM dexamethasone; compound concentration stated with each value (17α-ethynyl triol: 1 nM)
[5] = test system: osteoblasts and osteocytes; test: osteoblast and osteocyte apoptosis in vertebral bone of ovariectomized mice (TUNEL); format: in vivo, Swiss Webster mice
Excerpt: The degree of apoptosis of osteoblasts and osteocytes in murine vertebral bone as a function of estrogen deficiency was examined. Swiss Webster mice (four months old) were ovariectomized. Twenty-eight days later, the animals were sacrificed, vertebrae were isolated, fixed and embedded, and then undecalcified in methacrylate.

C#C[C@]1(O)CC[C@H]2[C@@H]3[C@@H](O)C=C4C[C@@H](O)CC[C@]4(C)[C@H]3CC[C@@]21C [17α-ethynylandrost-5-ene-3β,7β,17β-triol]
activated NF-κB in spleen cell nuclei (ELISA) (NF-κB; 0 hours (before LPS), about 40 mg/kg i.p. 24 h before LPS): 22 relative optical density units
activated NF-κB in spleen cell nuclei (ELISA) (NF-κB; 1.5 hours after LPS): 2 relative optical density units
activated NF-κB in spleen cell nuclei (ELISA) (NF-κB; 2.0 hours after LPS): 7 relative optical density units
activated NF-κB in spleen cell nuclei (ELISA) (NF-κB; 2.5 hours after LPS): 9 relative optical density units
maximum clinical score ([1]; day 7): 5.1
clinical score at day 14 ([1]; end of protocol): 4.1
average number of lymphocytes in PLNs ([2]; 0.1 mg/day oral gavage): 11.1×10^6 per lymph node
IFNγ, IL-4 and IL-5 levels compared to vehicle control ([2]; compound 1.0 and 0.1 mg/day, dexamethasone 5 μg/day): increased
decrease of expression of 11β-HSD1 in osteoblasts (11β-HSD1): about 50%
decrease of MCP-1 levels [3]: about 50%
reversal of the decrease in osteoprotegerin synthesis [4]: completely reversed the decrease in osteoprotegerin synthesis
osteoblast and osteocyte apoptosis [5]: reduce apoptosis
